Laboratory results: the supplement of paper PMC10307832

Experiments:
Experiment in all cases: relative viability (nuclei count vs DMSO), 5 days (fraction); higher = more cells survive
GSK-J4 + Luminespib = compound: CCOC(=O)CCNc1cc(N2CCc3ccccc3CC2)nc(-c2ccccn2)n1 [GSK-J4] + CCNC(=O)c1noc(-c2cc(C(C)C)c(O)cc2O)c1-c1ccc(CN2CCOCC2)cc1 [Luminespib] (partner 0.01 µM)
Procedure, shortened: (§1)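 Nuclei were stained with Hoechst during a one-step fixation (final 0.05% Triton X-100, 1% formaldehyde, 1 ug/ml Hoechst) carried out 5 days after dosing, then counted on 4× images. The cells, lung cancer lines in 1536-well plates, had been dosed by pin tool the day after seeding with one drug alone or a fixed anchor-drug dose plus five library-drug doses (not always all listed) in √10 steps. Relative viability is the nuclei count in treated wells divided by that in vehicle wells, and each value is the median of duplicate plates.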

GSK-J4 + Palbociclib = compound: CCOC(=O)CCNc1cc(N2CCc3ccccc3CC2)nc(-c2ccccn2)n1 [GSK-J4] + CC(=O)c1c(C)c2cnc(Nc3ccc(N4CCNCC4)cn3)nc2n(C2CCCC2)c1=O [Palbociclib] (partner 0.5 µM)
Procedure, shortened: as §1

GSK-J4 + AZD7762 = compound: CCOC(=O)CCNc1cc(N2CCc3ccccc3CC2)nc(-c2ccccn2)n1 [GSK-J4] + NC(=O)Nc1cc(-c2cccc(F)c2)sc1C(=O)N[C@H]1CCCNC1 [AZD7762] (partner 0.2 µM)
Procedure, shortened: as §1

AZ3146 + Palbociclib = compound: CN1CCC(CC1)OC2=CC(=C(C=C2)NC3=NC=C4C(=N3)N(C(=O)N4C)C5CCCC5)OC [AZ3146] + CC(=O)c1c(C)c2cnc(Nc3ccc(N4CCNCC4)cn3)nc2n(C2CCCC2)c1=O [Palbociclib] (partner 0.5 µM)
Procedure, shortened: as §1

Cell Line	relative viability (GSK-J4 + Luminespib; first compound 0.5 µM)	relative viability (GSK-J4 + Luminespib; first compound 5 µM)	relative viability (GSK-J4 + Luminespib; first compound 15.81 µM)	relative viability (GSK-J4 + Luminespib; first compound 50 µM)	relative viability (GSK-J4 + Palbociclib; first compound 0.5 µM)	relative viability (GSK-J4 + Palbociclib; first compound 1.581 µM)	relative viability (GSK-J4 + Palbociclib; first compound 5 µM)	relative viability (GSK-J4 + Palbociclib; first compound 15.81 µM)	relative viability (GSK-J4 + Palbociclib; first compound 50 µM)	relative viability (GSK-J4 + AZD7762; first compound 0.5 µM)	relative viability (GSK-J4 + AZD7762; first compound 1.581 µM)	relative viability (GSK-J4 + AZD7762; first compound 5 µM)	relative viability (GSK-J4 + AZD7762; first compound 15.81 µM)	relative viability (GSK-J4 + AZD7762; first compound 50 µM)	relative viability (AZ3146 + Palbociclib; first compound 0.08 µM)	relative viability (AZ3146 + Palbociclib; first compound 0.253 µM)	relative viability (AZ3146 + Palbociclib; first compound 0.8 µM)	relative viability (AZ3146 + Palbociclib; first compound 2.53 µM)	relative viability (AZ3146 + Palbociclib; first compound 8 µM)	relative viability (GSK-J4 + Luminespib; first compound 1.581 µM)
HCC-15	0.232	0.304	0.174	0.268	0.712	0.528	0.701	0.694	0.488	1.19	1.09	1.12	0.982	1.22	0.757	0.668	0.727	0.738	0.68	
NCI-H1666	1.02	1.11	1.03	0.735	0.685	0.561	0.59	0.627	0.708	0.889	0.807	0.688	0.768	0.573	0.586	0.659	0.672	0.663	0.656	0.925
NCI-H1395	0.529	0.62	0.723	0.536	0.546	0.518	0.576	0.556	0.61	0.403	0.415	0.409	0.351	0.413	0.619	0.603		0.619	0.647	0.621
HOP-62	0.877	0.917	0.794	0.396	0.469	0.455	0.44	0.465	0.473	0.555	0.573	0.45	0.592	0.451	0.357	0.5	0.438	0.436	0.447	0.937
NCI-H1651	0.703	0.727	0.701	0.625	0.502	0.47	0.504	0.504	0.509	0.4	0.468	0.466	0.406	0.38	0.486	0.532	0.53	0.526	0.497	0.728
EMC-BAC-2	1.21	0.985	1.09	0.676	0.505	0.474		0.465	0.471	1.12	0.831		1.07	0.893	0.466	0.519	0.555	0.53	0.514	1.09
LK-2	0.191	0.151	0.193	0.159	0.765	0.652	0.85	0.683	0.506	0.53	0.29	0.663	0.168	0.19			0.633	0.591	0.71	
ABC-1	0.373	0.594	0.52	0.396	0.599	0.589	0.605	0.691	0.432	0.784	0.784	0.955	0.666	0.445	0.432	0.736	0.751	0.851	0.573	0.496
SW 900	0.195	0.155	0.177	0.154	0.575	0.496	0.546	0.517	0.436	0.68	0.676	0.597	0.57	0.55	0.447		0.502	0.489	0.589	0.156
PC-3 [JPC-3]	0.698	0.735	0.584	0.439	0.499	0.511	0.512	0.497	0.514	1.04	0.55	0.932	0.748	0.555	0.505		0.47	0.555	0.482	0.552
A-427	0.866	0.64	0.681	0.311	0.507	0.439		0.511	0.443	0.684	0.441		0.576	0.328	0.482	0.521	0.497	0.493	0.463	
NCI-H1975	0.261		0.178	0.284	0.543	0.498	0.613	0.524	0.634	0.783	0.633		0.63	0.858	0.534	0.548	0.562	0.552	0.309	0.202
LU99A	0.201		0.244	0.223	0.403	0.375		0.383	0.344	0.277	0.249		0.244	0.126		0.464	0.428	0.377	0.455	0.267
NCI-H1755	0.355	0.504	0.326	0.383	0.43	0.336	0.456	0.447	0.408	0.42	0.622	0.294	0.4	0.387	0.414	0.427	0.434	0.479	0.431	0.387
LOU-NH91	0.347	0.254	0.267	0.246	0.51	0.468	0.493	0.507	0.46	0.773	0.734	0.561	0.703	0.74	0.513	0.582	0.512	0.539	0.537	0.329
CAL-12T	0.83	0.244	0.205	0.518	0.46	0.342	0.442	0.482	0.493	0.705	0.646	0.557	0.649	0.675	0.391	0.502	0.45	0.523	0.229	0.549
NCI-H1734	0.209	0.181	0.186	0.155	0.332	0.318	0.346	0.335	0.281	0.513	0.767	0.333	0.513	0.423	0.308	0.376	0.387	0.3	0.317	0.167

Cell Line	relative viability (GSK-J4 + Luminespib; first compound 0.5 µM)	relative viability (GSK-J4 + Luminespib; first compound 5 µM)	relative viability (GSK-J4 + Luminespib; first compound 15.81 µM)	relative viability (GSK-J4 + Luminespib; first compound 50 µM)	relative viability (GSK-J4 + Palbociclib; first compound 0.5 µM)	relative viability (GSK-J4 + Palbociclib; first compound 1.581 µM)	relative viability (GSK-J4 + Palbociclib; first compound 5 µM)	relative viability (GSK-J4 + Palbociclib; first compound 15.81 µM)	relative viability (GSK-J4 + Palbociclib; first compound 50 µM)	relative viability (GSK-J4 + AZD7762; first compound 0.5 µM)	relative viability (GSK-J4 + AZD7762; first compound 1.581 µM)	relative viability (GSK-J4 + AZD7762; first compound 5 µM)	relative viability (GSK-J4 + AZD7762; first compound 15.81 µM)	relative viability (GSK-J4 + AZD7762; first compound 50 µM)	relative viability (AZ3146 + Palbociclib; first compound 0.08 µM)	relative viability (AZ3146 + Palbociclib; first compound 0.253 µM)	relative viability (AZ3146 + Palbociclib; first compound 0.8 µM)	relative viability (AZ3146 + Palbociclib; first compound 2.53 µM)	relative viability (AZ3146 + Palbociclib; first compound 8 µM)	relative viability (GSK-J4 + Luminespib; first compound 1.581 µM)
LCLC-97TM1	0.725	0.773	0.415	0.256	0.211	0.216	0.225	0.211	0.272	0.197	0.23	0.384	0.209	0.337	0.245	0.247	0.232	0.225	0.188	0.722
BEN	0.297		0.289	0.189	0.476	0.314	0.465	0.419	0.457	0.694	0.634	0.441	0.567	0.426		0.47	0.511	0.479	0.471	0.373
ChaGo-K-1	0.56	0.594	0.607	0.45	0.934		0.967	0.889	0.845	0.873		0.774	0.912	0.766	0.935	0.927	0.894	0.896	0.862	0.627
NCI-H2405	0.774		0.511	0.653	0.525	0.458		0.522	0.508	0.774	0.954		0.677	0.738	0.516	0.546	0.504	0.505	0.508	0.674
HCC-44	1.02		0.939	0.747	0.933	0.916	0.989	0.979	1.03	0.95	0.939	0.962	1.11	1.05	0.966	0.977	1.05	0.959	0.935	0.897
EPLC-272H	0.263	0.346	0.203	0.173	0.342	0.327	0.371	0.309	0.33	0.206	0.23	0.162	0.138	0.147	0.327	0.342	0.309	0.338	0.27	0.408
NCI-H322M	0.857	0.953	0.646	0.542	0.493	0.446	0.497	0.435	0.538	0.618	0.506	0.555	0.636	0.536	0.475	0.465	0.461	0.518	0.471	0.756
NCI-H2170	0.576	0.81	0.362	0.609	0.372	0.393	0.392	0.311	0.378	0.776	0.839	0.774	0.667	0.836	0.341	0.361	0.394	0.398	0.377	0.668
NCI-H2342	0.736	0.865	0.951	0.858	0.646	0.48	0.596	0.507	0.678	0.624	0.525	0.531	0.557	0.362	0.527	0.502	0.582	0.565	0.501	0.783
H3255	0.752	0.693	0.827	0.683	0.325	0.299	0.257	0.279	0.284	0.827	0.791	0.727	0.791	0.656	0.331	0.294	0.311	0.344	0.332	0.726
EKVX	0.824	0.977	0.755	0.811	0.352		0.365	0.352	0.344	0.714		0.732	0.669	0.535	0.406	0.373	0.284	0.431	0.368	0.725
NCI-H1993	0.885	0.779	0.525	0.494	0.588	0.623	0.606	0.542	0.481	0.805	0.683	1.04	0.604	0.435	0.721	0.71	0.579	0.639	0.762	0.803
NCI-H650	0.688	0.597	0.749	0.519	0.309	0.283		0.255	0.239	0.938	1.04		0.782	0.696	0.303	0.343	0.234	0.363	0.27	0.682
NCI-H460	0.0274	0.03	0.0363	0.0333	0.175		0.167	0.137	0.149	0.645			0.65	0.555	0.088	0.139	0.139	0.161	0.0649	0.0313
NCI-H1437	1.05	1.1	1.03	0.739	0.293	0.278	0.332	0.38	0.205	1.1	0.898	1.02	1.07	0.595	0.311	0.29	0.303	0.314	0.27	1.1
NCI-H2347	0.529	0.341		0.435	0.448	0.374	0.411	0.436	0.419	0.779	0.783	0.781	0.724	0.591	0.441	0.435	0.457	0.463	0.415	0.405
NCI-H522	1.22	1.2	0.612	0.587	1.22	0.953		0.976	0.622	0.909	0.759		0.637	0.603	1.15	0.902	1.14	0.894	1.1	0.944
